# Experimental data reported in ChEMBL document CHEMBL6078667, “Synthesis, Biological Evaluation, and Mechanistic Insights of Rubrolide Analogues as Antitumor Agents” (J Nat Prod, 2024).
# Columns and labels:
# U-87 MG [1] = experiment: Cytotoxicity against human U-87 MG cells assessed as survival rate at 10 uM measured after 72 hrs by MTT assay relative to control; type: functional, U-87MG ATCC; conditions: read-out: Survival
# MCF7 [2] = experiment: Cytotoxicity against human MCF7 cells assessed as survival rate at 10 uM measured after 72 hrs by MTT assay relative to control; type: functional; conditions: read-out: Survival
# HCT-116 [3] = experiment: Cytotoxicity against human HCT-116 cells assessed as survival rate at 10 uM measured after 72 hrs by MTT assay relative to control; type: functional; conditions: read-out: Survival
# A549 = experiment: Antitumor activity against human A549 cells; type: functional, cell-based
# P388 = experiment: Antitumor activity against mouse P388 cells; type: functional, cell-based
# HT-29 = experiment: Antitumor activity against human HT-29 cells; type: functional, cell-based
# HCT-116 [4] = experiment: Cytotoxicity against human HCT-116 cells assessed as inhibition of cell growth incubated for 72 hrs by MTT assay; type: functional, cell-based; conditions: HCT-116, 72 h
# MGC-803 [5] = experiment: Cytotoxicity against human MGC-803 cells assessed as inhibition of cell growth incubated for 72 hrs by MTT assay; type: functional, cell-based; conditions: MGC-803, 72 h
# MKN-45 [6] = experiment: Cytotoxicity against human MKN-45 cells assessed as inhibition of cell growth incubated for 72 hrs by MTT assay; type: functional, cell-based; conditions: MKN-45, 72 h
# U-87 MG [7] = experiment: Cytotoxicity against human U-87 MG cells assessed as inhibition of cell growth incubated for 72 hrs by MTT assay; type: functional, cell-based, U-87MG ATCC
# [8] = Cytotoxicity against HHL-5 cells assessed as inhibition of cell growth incubated for 72 hrs by MTT assay; type: toxicity, cell-based; conditions: human
# HeLa [9] = experiment: Cytotoxicity against human HeLa cells assessed as inhibition of cell growth incubated for 72 hrs by MTT assay; type: functional, cell-based
# U-87 MG [10] = experiment: Cytotoxicity against human U-87 MG cells assessed as inhibition of cell growth at 10 uM measured after 72 hrs by MTT assay relative to control; type: functional, U-87MG ATCC
# MKN-45 [11] = experiment: Cytotoxicity against human MKN-45 cells assessed as inhibition of cell growth at 10 uM measured after 72 hrs by MTT assay relative to control; type: functional
# HeLa [12] = experiment: Cytotoxicity against human HeLa cells assessed as inhibition of cell growth at 10 uM measured after 72 hrs by MTT assay relative to control; type: functional
# MGC-803 [13] = experiment: Cytotoxicity against human MGC-803 cells assessed as inhibition of cell growth at 10 uM measured after 72 hrs by MTT assay relative to control; type: functional
# MCF7 [14] = experiment: Cytotoxicity against human MCF7 cells assessed as inhibition of cell growth incubated for 72 hrs by MTT assay; type: functional, cell-based; conditions: MCF7, 72 h
# HCT-116 [15] = experiment: Cytotoxicity against human HCT-116 cells assessed as inhibition of cell growth at 10 uM measured after 72 hrs by MTT assay relative to control; type: functional
# MCF7 [16] = experiment: Cytotoxicity against human MCF7 cells assessed as inhibition of cell growth at 10 uM measured after 72 hrs by MTT assay relative to control; type: functional
SMILES,viability at 10 µM (U-87 MG [1]) [%],viability at 10 µM (MCF7 [2]) [%],viability at 10 µM (HCT-116 [3]) [%],IC50 (A549) [nM],IC50 (P388) [nM],IC50 (HT-29) [nM],IC50 (HCT-116 [4]) [nM],IC50 (MGC-803 [5]) [nM],IC50 (MKN-45 [6]) [nM],IC50 (U-87 MG [7]) [nM],IC50 at 72 h [8] [nM],IC50 (HeLa [9]) [nM],inhibition at 10 µM (U-87 MG [10]) [%],inhibition at 10 µM (MKN-45 [11]) [%],inhibition at 10 µM (HeLa [12]) [%],inhibition at 10 µM (MGC-803 [13]) [%],IC50 (MCF7 [14]) [nM],inhibition at 10 µM (HCT-116 [15]) [%],inhibition at 10 µM (MCF7 [16]) [%]
O=C1C=C(c2ccccc2)/C(=C/c2ccc(C(=O)O)cc2)O1,96.5,87.3,105,,,,,,,,,,,,,,,,
COc1ccc(C2=CC(=O)O/C2=C\c2ccc3ccccc3c2)cc1,106,83.8,98.3,,,,,,,,,,,,,,,,
COc1cc(/C=C2\OC(=O)C=C2c2ccccc2)ccc1O,99.8,102,137,,,,,,,,,,,,,,,,
O=C1O/C(=C\c2cc(Br)c(O)c(Br)c2)C(c2cc(Br)c(O)c(Br)c2)=C1Cl,,,,8000,8000,8000,,,,,,,,,,,,,
COc1cccc2c1C(=O)c1c(O)c3c(c(O)c1C2=O)C[C@@](O)(C(=O)CO)C[C@@H]3O[C@H]1C[C@H](N)[C@H](O)[C@H](C)O1 [DOXORUBICIN],20.3,5.8,12.2,,,,200,300,200,300,7200,200,,,,,,,
COc1ccc(C2=CC(=O)O/C2=C\c2ccc3[nH]ccc3c2)cc1,39.5,25.8,23.9,,,,300,900,200,7800,1300,200,> 50,> 50,> 50,> 50,1300,> 50,> 50
CC(=O)Nc1ccc(/C=C2\OC(=O)C=C2c2ccccc2)cc1,90.3,92.2,87.2,,,,,,,,,,,,,,,,
O=C1C=C(c2ccccc2)/C(=C/c2ccc(O)cc2)O1,92.4,87.1,87.7,,,,,,,,,,,,,,,,
COc1ccc(C2=CC(=O)O/C2=C\c2ccc(NC(C)=O)cc2)cc1,39.2,30.4,32.5,,,,2200,3000,1000,2500,5500,700,> 50,> 50,> 50,> 50,6100,> 50,> 50
COc1ccc(C2=CC(=O)O/C2=C\c2ccc(O)c(O)c2)cc1,51.9,26.1,31.7,,,,3400,8800,2800,23800,11300,1300,> 50,> 50,> 50,> 50,2500,> 50,> 50
COc1ccc(C2=CC(=O)O/C2=C\c2ccc(N(C)C)cc2)cc1,101,92.2,87.2,,,,,,,,,,,,,,,,
COc1ccc(C2=CC(=O)O/C2=C\c2ccc(O)c(OC)c2)cc1,37.8,25.2,24.1,,,,400,5400,300,4500,1900,600,> 50,> 50,> 50,> 50,100,> 50,> 50
COc1ccc(C2=CC(=O)O/C2=C\c2ccc(C(C)C)cc2)cc1,97.4,102,85.9,,,,,,,,,,,,,,,,
